Experimental data: paper PMC6620786 (Molecular pharmaceutics, 2019)

Legend:
ABCG2 = target: T1, ABCG2 (Homo sapiens, UniProt Q9UNQ0); test: vanadate-sensitive ATPase stimulation in insect cell membranes expressing ABCG2; type: biochemical
T1 sequence (Q9UNQ0 1-655): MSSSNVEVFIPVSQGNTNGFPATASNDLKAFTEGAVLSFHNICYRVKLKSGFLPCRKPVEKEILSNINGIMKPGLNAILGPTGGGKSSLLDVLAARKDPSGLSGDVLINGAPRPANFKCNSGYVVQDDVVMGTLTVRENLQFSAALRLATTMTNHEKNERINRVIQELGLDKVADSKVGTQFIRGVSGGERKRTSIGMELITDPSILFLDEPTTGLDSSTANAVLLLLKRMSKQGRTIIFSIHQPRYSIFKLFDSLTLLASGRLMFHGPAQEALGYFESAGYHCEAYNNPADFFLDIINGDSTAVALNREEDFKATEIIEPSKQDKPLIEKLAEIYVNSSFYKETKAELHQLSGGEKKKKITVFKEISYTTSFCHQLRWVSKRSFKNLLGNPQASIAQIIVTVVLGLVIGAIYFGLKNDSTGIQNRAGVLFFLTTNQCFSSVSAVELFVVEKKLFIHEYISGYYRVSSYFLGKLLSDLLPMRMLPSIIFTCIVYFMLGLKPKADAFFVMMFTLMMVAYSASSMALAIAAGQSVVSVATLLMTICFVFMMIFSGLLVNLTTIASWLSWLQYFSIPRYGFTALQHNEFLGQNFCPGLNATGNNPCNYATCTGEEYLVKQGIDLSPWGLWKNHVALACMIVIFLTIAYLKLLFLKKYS

ABCB1 = ABCB1 (Homo sapiens, UniProt P08183); test: vanadate-sensitive ATPase stimulation in insect cell membranes expressing ABCB1; type: biochemical
Chain of ABCB1 (P08183 whole entry): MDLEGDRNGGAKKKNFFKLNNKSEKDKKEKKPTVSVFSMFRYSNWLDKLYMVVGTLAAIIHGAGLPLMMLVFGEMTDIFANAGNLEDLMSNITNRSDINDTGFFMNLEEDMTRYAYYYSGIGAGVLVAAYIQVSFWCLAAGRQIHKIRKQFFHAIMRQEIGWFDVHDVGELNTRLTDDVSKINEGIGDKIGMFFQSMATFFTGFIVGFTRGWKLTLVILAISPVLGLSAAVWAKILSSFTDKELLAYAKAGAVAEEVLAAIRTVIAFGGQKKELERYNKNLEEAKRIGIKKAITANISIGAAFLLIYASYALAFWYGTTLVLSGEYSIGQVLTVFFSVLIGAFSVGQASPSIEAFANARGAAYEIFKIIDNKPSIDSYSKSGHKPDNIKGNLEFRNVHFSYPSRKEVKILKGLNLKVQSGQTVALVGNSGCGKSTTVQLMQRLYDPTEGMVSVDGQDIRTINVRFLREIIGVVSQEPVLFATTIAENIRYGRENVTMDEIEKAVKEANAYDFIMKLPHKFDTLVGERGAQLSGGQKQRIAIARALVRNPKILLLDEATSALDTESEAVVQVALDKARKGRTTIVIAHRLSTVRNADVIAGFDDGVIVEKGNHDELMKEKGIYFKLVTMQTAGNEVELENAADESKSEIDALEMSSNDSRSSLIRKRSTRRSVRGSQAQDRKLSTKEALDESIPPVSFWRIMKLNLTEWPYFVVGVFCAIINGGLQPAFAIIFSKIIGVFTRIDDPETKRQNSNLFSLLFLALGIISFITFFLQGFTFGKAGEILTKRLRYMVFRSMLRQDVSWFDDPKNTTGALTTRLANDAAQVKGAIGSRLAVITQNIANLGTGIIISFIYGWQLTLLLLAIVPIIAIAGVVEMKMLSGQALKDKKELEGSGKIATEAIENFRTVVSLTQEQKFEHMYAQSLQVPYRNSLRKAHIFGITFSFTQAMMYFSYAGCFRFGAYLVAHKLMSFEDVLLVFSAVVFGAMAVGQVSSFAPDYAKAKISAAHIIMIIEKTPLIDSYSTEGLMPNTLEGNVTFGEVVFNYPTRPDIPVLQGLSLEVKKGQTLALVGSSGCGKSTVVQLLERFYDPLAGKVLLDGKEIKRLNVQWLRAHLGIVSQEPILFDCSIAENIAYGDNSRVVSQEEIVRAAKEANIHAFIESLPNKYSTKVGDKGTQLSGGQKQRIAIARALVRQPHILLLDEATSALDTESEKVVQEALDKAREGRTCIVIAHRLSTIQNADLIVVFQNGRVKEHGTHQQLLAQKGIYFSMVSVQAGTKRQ

`Cn1cc(-c2cc3c(N4CCN(c5ncc([C@@](C)(N)c6ccc(F)cc6)cn5)CC4)ncnn3c2)cn1` [avapritinib] was tested, and the EC50 (ABCG2) was roughly 200 nM and the EC50 (ABCB1) was roughly 5000 nM.
